Source: ChEMBL document CHEMBL1127056, “3-(Alkylamino)-4H-pyrido[4,3-e]-1,2,4-thiadiazine 1,1-dioxides as powerful inhibitors of insulin release from rat pancreatic B-cells: a new class of potassium channel openers?” (1993)

Experiments:
Type in all cases: functional
Rattus norvegicus [1] = organism: Rattus norvegicus; assay: Inhibition of insulin release from rat pancreatic islets incubated in the presence of glucose ([…]) at concentration of 50 uM
Rattus norvegicus [2] = organism: Rattus norvegicus; assay: Inhibition of insulin release from rat pancreatic islets incubated in the presence of glucose ([…]) at concentration of 1 uM
Rattus norvegicus [3] = organism: Rattus norvegicus; assay: Inhibition of insulin release from rat pancreatic islets incubated in the presence of glucose ([…]) at concentration of 10 uM
Rattus norvegicus [4] = organism: Rattus norvegicus; assay: Inhibition of insulin release from rat pancreatic islets incubated in the presence of glucose ([…]) at concentration of 100 uM
Rattus norvegicus [5] = organism: Rattus norvegicus; assay: Inhibition of insulin release from rat pancreatic islets incubated in the presence of glucose ([…]) at concentration of 500 uM

Row | Structure (SMILES) | Secretion (Rattus norvegicus [1]) [%] | Secretion (Rattus norvegicus [2]) [%] | Secretion (Rattus norvegicus [3]) [%] | Secretion (Rattus norvegicus [4]) [%] | Secretion (Rattus norvegicus [5]) [%]
1 | NC1=NS(=O)(=O)c2cnccc2N1 | 104.1 |  |  |  | 
2 | CCC(C)NC1=NS(=O)(=O)c2cnccc2N1 (configuration not stated) | 9.4 | 97.8 | 49 | 7.1 | 9.4
3 | CCCNC1=NS(=O)(=O)c2cnccc2N1 | 57.7 | 97.1 | 87.3 | 21.9 | 9
4 | O=S1(=O)N=C(NN2CCOCC2)Nc2ccncc21 | 94.8 |  |  |  | 
5 | O=S1(=O)N=C(NC2CCCCC2)Nc2ccncc21 | 40.5 | 74.4 | 64.4 | 18.4 | 6.2
6 | CC(C)C(C)NC1=NS(=O)(=O)c2cc(Cl)ccc2N1 (configuration not stated) | 11 | 88.9 | 62.7 | 6.5 | 4.6
7 | CCCCNC1=NS(=O)(=O)c2cnccc2N1 | 38.6 | 83.7 | 82 | 32.5 | 9
8 | O=S1(=O)N=C(NC2CCCC2)Nc2ccncc21 | 31.5 | 82.8 | 71.1 | 9.2 | 4.4
9 | CC(C)CNC1=NS(=O)(=O)c2cnccc2N1 | 23.4 | 84.2 | 71.8 | 10.2 | 9.7
10 | CC(C)C(C)NC1=NS(=O)(=O)c2cnccc2N1 (configuration not stated) | 8.6 | 70.5 | 13.7 | 8.8 | 8.4
11 | CC(C)NC1=NS(=O)(=O)c2cnccc2N1 | 42.5 | 110.3 | 55.3 | 18.4 | 8.8
12 | CC1=Nc2ccc(Cl)cc2S(=O)(=O)N1 [DIAZOXIDE] | 28.8 | 78.9 | 70 | 14 | 8.5
